Experimental data as given in PubChem BioAssay AID256 (DTP/NCI, 2004).
“And” between values parts separate entries of the source, which are not always exact repeats. Identical values can stand only once. Inconclusive results and toxic doses are left out. Rule for the calls: active = survival T/C of 150% or more; inactive = T/C below 125% in these data.

System: CD2F1 mice, L1210 leukemia ip, survival T/C
Assay: NCI In Vivo Anticancer Drug Screen. Data for tumor model L1210 Leukemia (intraperitoneal) in CD2F1 (CDF1) mice
Conditions: higher = longer survival
How it was run: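 Implant tumor; dose compound or vehicle; measure endpoint in both groups; report treated divided by control.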

[1] = endpoint: mean survival time, dose: 100.0 mg/kg/injection, schedule: Q01DX001 (ip), vehicle: saline
[2] = endpoint: mean survival time, dose: 200.0 mg/kg/injection, schedule: Q01DX001 (ip), vehicle: saline
[3] = endpoint: mean survival time, dose: 400.0 mg/kg/injection, schedule: Q01DX001 (ip), vehicle: saline
[4] = endpoint: mean survival time, dose: 100.0 mg/kg/injection, schedule: Q04DX002 (ip), vehicle: saline with Tween-80
[5] = endpoint: mean survival time, dose: 200.0 mg/kg/injection, schedule: Q04DX002 (ip), vehicle: saline with Tween-80
[6] = endpoint: mean survival time, dose: 400.0 mg/kg/injection, schedule: Q04DX002 (ip), vehicle: saline with Tween-80
[7] = endpoint: mean survival time, dose: 100.0 mg/kg/injection, schedule: Q01DX001 (ip), vehicle: saline with Tween-80
[8] = endpoint: mean survival time, dose: 100.0 mg/kg/injection, schedule: Q01DX009 (ip), vehicle: saline with Tween-80
[9] = endpoint: mean survival time, dose: 200.0 mg/kg/injection, schedule: Q01DX001 (ip), vehicle: saline with Tween-80
[10] = endpoint: mean survival time, dose: 200.0 mg/kg/injection, schedule: Q01DX009 (ip), vehicle: saline with Tween-80
[11] = endpoint: mean survival time, dose: 400.0 mg/kg/injection, schedule: Q01DX001 (ip), vehicle: saline with Tween-80
[12] = endpoint: mean survival time, dose: 400.0 mg/kg/injection, schedule: Q01DX009 (ip), vehicle: saline with Tween-80
[13] = endpoint: mean survival time, dose: 100.0 mg/kg/injection, schedule: Q04DX003 (ip), vehicle: saline with Tween-80

Measured: T/C

CCCCOCCOCCOCc1cc2c(cc1CCC)OCO2
inactive: endpoint: mean survival time, dose: 50.0 mg/kg/injection, schedule: Q01DX009 (ip), vehicle: Klucel (hydroxypropylcellulose) (HPC) 96 % of control | endpoint: mean survival time, dose: 100.0 mg/kg/injection, schedule: Q01DX009 (ip), vehicle: Klucel (hydroxypropylcellulose) (HPC) 89 % of control | endpoint: mean survival time, dose: 200.0 mg/kg/injection, schedule: Q01DX009 (ip), vehicle: Klucel (hydroxypropylcellulose) (HPC) 100 % of control

Cc1cc(OC(=O)Nc2cccc(Cl)c2Cl)ccc1Cl
inactive: endpoint: mean survival time, dose: 100.0 mg/kg/injection, schedule: Q01DX009 (ip), vehicle: other 101 % of control | endpoint: mean survival time, dose: 200.0 mg/kg/injection, schedule: Q01DX009 (ip), vehicle: other 103 % of control | endpoint: mean survival time, dose: 400.0 mg/kg/injection, schedule: Q01DX009 (ip), vehicle: other 106 % of control

OCC1OC(n2c(SCc3ccccc3)nc3ccccc32)C(O)C1O (stereo unspecified)
inactive: [1] 102 % of control | [2] 102 % of control | [3] 97 % of control

COc1ccc(NC(=O)Nc2ccccc2OC)c(Cl)c1
inactive: [4] 94 % of control | [5] 87 % of control | [6] 97 % of control

COc1cc(C(=O)C=[N+]=[N-])cc(OC)c1OC(C)=O
inactive: [1] 91 % of control | [2] 96 % of control | [3] 110 % of control

C[n+]1c(/C=C\c2cccc([N+](=O)[O-])c2)ccc2ccccc21
inactive: [7] 106 % of control | [8] 87 % of control | [9] 95 % of control | [10] 91 % of control | [11] 107 % of control | [12] 95 % of control

CCCCCCCCCCCCCCCC[N+](C)(C)CC#CCCl
inactive: endpoint: mean survival time, dose: 6.25 mg/kg/injection, schedule: Q04DX002 (ip), vehicle: saline with Tween-80 96 % of control | endpoint: mean survival time, dose: 12.5 mg/kg/injection, schedule: Q04DX002 (ip), vehicle: saline with Tween-80 88 % of control | endpoint: mean survival time, dose: 25.0 mg/kg/injection, schedule: Q04DX002 (ip), vehicle: saline with Tween-80 88 % of control

O=C(O)CN(CC(=O)O)C1CCCCC1N(CC(=O)O)CC(=O)O.[Cl][Pd][Cl] (stereo unspecified)
inactive: endpoint: median survival time, dose: 10.0 mg/kg/injection, schedule: Q04DX003 (ip), vehicle: saline 103 % of control | endpoint: median survival time, dose: 20.0 mg/kg/injection, schedule: Q04DX003 (ip), vehicle: saline 100 % of control | endpoint: median survival time, dose: 40.0 mg/kg/injection, schedule: Q04DX003 (ip), vehicle: saline 103 % of control | endpoint: median survival time, dose: 80.0 mg/kg/injection, schedule: Q04DX003 (ip), vehicle: saline 103 % of control and 106 % of control | endpoint: median survival time, dose: 160.0 mg/kg/injection, schedule: Q04DX003 (ip), vehicle: saline 98 % of control

Cc1c(F)cccc1NC(=O)OC(C)C
inactive: [4] 97 % of control | [5] 102 % of control | [6] 94 % of control

CCOC(=O)NC1=C(N2CC2)C(=O)C(NC(=O)OCC)=C(N2CC2)C1=O
inactive: endpoint: mean survival time, dose: 1.25 mg/kg/injection, schedule: Q01DX009 (oral), vehicle: other 87 % of control | endpoint: mean survival time, dose: 1.25 mg/kg/injection, schedule: Q01DX009 (oral), vehicle: saline 98 % of control | endpoint: mean survival time, dose: 2.5 mg/kg/injection, schedule: Q01DX009 (oral), vehicle: other 97 % of control | endpoint: mean survival time, dose: 2.5 mg/kg/injection, schedule: Q01DX009 (oral), vehicle: saline 94 % of control | endpoint: mean survival time, dose: 4.0 mg/kg/injection, schedule: Q01DX009 (sc), vehicle: other 93 % of control | endpoint: mean survival time, dose: 10.0 mg/kg/injection, schedule: Q01DX009 (oral), vehicle: other 95 % of control | endpoint: mean survival time, dose: 16.0 mg/kg/injection, schedule: Q04DX003 (ip), vehicle: other 90 % of control | endpoint: mean survival time, dose: 20.0 mg/kg/injection, schedule: Q01DX009 (oral), vehicle: other 87 % of control | endpoint: median survival time, dose: 0.25 mg/kg/injection, schedule: Q01DX009 (ip), vehicle: saline with Tween-80 97 % of control | endpoint: median survival time, dose: 0.5 mg/kg/injection, schedule: Q01DX009 (ip), vehicle: saline with Tween-80 110 % of control | endpoint: median survival time, dose: 1.0 mg/kg/injection, schedule: Q08DX002 (ip), vehicle: saline with Tween-80 110 % of control | endpoint: median survival time, dose: 4.0 mg/kg/injection, schedule: Q01DX009 (ip), vehicle: saline with Tween-80 90 % of control

COCC(O)CN1CCN(c2ccccc2C)CC1 (stereo unspecified)
inactive: [13] 93 % of control

CCCN=C(N)C(N)=NCCC (tested in a mixture with another compound)
inactive: endpoint: mean survival time, dose: 100.0 mg/kg/injection, schedule: Q04DX002 (ip), vehicle: other 106 % of control | [4] 95 % of control | endpoint: mean survival time, dose: 200.0 mg/kg/injection, schedule: Q04DX002 (ip), vehicle: other 103 % of control | [5] 100 % of control | endpoint: mean survival time, dose: 400.0 mg/kg/injection, schedule: Q04DX002 (ip), vehicle: other 91 % of control | [6] 91 % of control

CC(C)c1nc(-c2ccccc2)c(-c2ccccc2)[nH]1
inactive: [8] 103 % of control | [10] 94 % of control | [12] 100 % of control

CCOc1ccc(N=Cc2ccccc2O)cc1
inactive: [7] 94 % of control | [9] 94 % of control | [11] 87 % of control

CC1(C)N=C(N)N=C(N)N1c1ccc(OCCCCNC(=O)c2cccc(S(=O)(=O)F)c2)c(Cl)c1
inactive: endpoint: mean survival time, dose: 5.0 mg/kg/injection, schedule: Q01DX001 (ip), vehicle: saline with Tween-80 105 % of control | endpoint: mean survival time, dose: 5.0 mg/kg/injection, schedule: Q01DX009 (ip), vehicle: saline 102 % of control | endpoint: mean survival time, dose: 10.0 mg/kg/injection, schedule: Q01DX001 (ip), vehicle: saline with Tween-80 95 % of control | endpoint: mean survival time, dose: 10.0 mg/kg/injection, schedule: Q01DX009 (ip), vehicle: saline 98 % of control | endpoint: mean survival time, dose: 20.0 mg/kg/injection, schedule: Q01DX001 (ip), vehicle: saline with Tween-80 94 % of control | endpoint: mean survival time, dose: 20.0 mg/kg/injection, schedule: Q01DX009 (ip), vehicle: saline 98 % of control

Cc1cc(O)c(O)c([N+](=O)[O-])c1
inactive: [8] 95 % of control | [10] 97 % of control | [12] 97 % of control

O=C(OC1OC(CO)C(O)C(O)C1O)c1ccccc1 (stereo unspecified)
inactive: endpoint: mean survival time, dose: 50.0 mg/kg/injection, schedule: Q01DX009 (ip), vehicle: saline 97 % of control | endpoint: mean survival time, dose: 100.0 mg/kg/injection, schedule: Q01DX009 (ip), vehicle: saline 101 % of control | endpoint: mean survival time, dose: 200.0 mg/kg/injection, schedule: Q01DX009 (ip), vehicle: saline 93 % of control

c1ccc2[nH]c(CCCCc3nc4ccccc4[nH]3)nc2c1
inactive: endpoint: mean survival time, dose: 100.0 mg/kg/injection, schedule: Q04DX003 (ip), vehicle: saline 104 % of control | endpoint: mean survival time, dose: 200.0 mg/kg/injection, schedule: Q04DX003 (ip), vehicle: saline 100 % of control

O=C1NC(=O)C(c2ccccc2)(C2CCC2)N1 (stereo unspecified)
inactive: [13] 95 % of control | endpoint: mean survival time, dose: 400.0 mg/kg/injection, schedule: Q04DX003 (ip), vehicle: saline with Tween-80 88 % of control

CC1=C(C)C(=O)C(SC2CC(=O)OC2=O)=C(C)C1=O (stereo unspecified)
inactive: endpoint: mean survival time, dose: 25.0 mg/kg/injection, schedule: Q01DX001 (ip), vehicle: saline with Tween-80 108 % of control | endpoint: mean survival time, dose: 50.0 mg/kg/injection, schedule: Q01DX001 (ip), vehicle: saline with Tween-80 96 % of control | [7] 104 % of control
